According to PubChem BioAssay (NCI):
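Where inhibition never reached the appropriate level, the endpoint shown equals the highest concentration tested. Otherwise, values were interpolated linearly from a five-concentration, 48-hour dose response in 96-well plates. The concentration for full growth arrest is given as TGI.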 Where a SMILES comes first, the peptide text is derived from it. The star is where a group is joined. Ethyl(2-NMe3+) = C[N+](C)(C)CC*; Boc = CC(C)(C)OC(=O)*

What was measured:
Assay in all cases: DTP human tumour cell line panel, 48 h
[1] = test system: SF-268 CNS
[2] = test system: EKVX NSCLC
[3] = test system: OVCAR-4 ovarian
[4] = test system: NCI-H522 lung
[5] = test system: MCF7 breast
[6] = test system: SF-539 CNS
[7] = test system: HCC-2998 colon
[8] = test system: HL-60(TB) leukemia
[9] = test system: UACC-257 melanoma
[10] = test system: MDA-N
[11] = test system: UACC-62 melanoma
[12] = test system: HCT-15 colon
[13] = test system: KM12 colon
[14] = test system: NCI/ADR-RES ovarian
[15] = test system: T-47D breast
[16] = test system: SK-MEL-28 melanoma

| SMILES | TGI [1] [µM] | TGI [2] [µM] | TGI [3] [µM] | TGI [4] [µM] | TGI [5] [µM] | TGI [6] [µM] | TGI [7] [µM] | TGI [8] [µM] | TGI [9] [µM] | TGI [10] [µM] | TGI [11] [µM] | TGI [12] [µM] | TGI [13] [µM] | TGI [14] [µM] | TGI [15] [µM] | TGI [16] [µM] |
| --- | --- | --- | --- | --- | --- | --- | --- | --- | --- | --- | --- | --- | --- | --- | --- | --- |
| O=C(NNCc1ccco1)c1cc2ccccc2[nH]1 | > 100 | > 100 | > 71.8 | > 100 | > 46.3 | > 84.4 | > 90.1 | 96.9 | > 100 | > 100 | > 100 | > 100 | > 100 | > 80.8 | > 100 | > 100 |
| Nc1ccc(CCSSCCc2ccc(N)cc2)cc1 | 45.2 | > 100 | > 100 | 34.9 | > 100 | 63.5 | 34.4 | – | 51.7 | > 79.6 | 89.1 | > 67.9 | > 100 | > 74.4 | > 92.3 | > 78.6 |
| O=C1C=CC2(O)OCCN(CCO)C2=C1 (stereo not given) (tested in a mixture with another compound) | > 100 | > 100 | > 100 | > 100 | > 100 | – | > 100 | > 100 | > 100 | > 100 | > 100 | > 100 | > 100 | > 100 | > 100 | > 100 |
| Cc1ccc2c(c1)CC1(Cc3c(C)cccc3C1=O)C2=O (stereo not given) | > 100 | > 100 | > 100 | > 100 | > 100 | > 100 | > 100 | > 100 | > 100 | > 100 | > 100 | > 100 | > 100 | > 100 | > 100 | > 100 |
| N#Cc1ccc(C(=O)/C=C/c2ccc(O)c(O)c2)cc1 | 31.1 | 31.8 | 25.7 | 7.54 | 26 | 29.7 | 28.2 | 19.8 | 30 | 30.7 | 32.5 | 30.1 | 30.5 | > 65.8 | 31.2 | 29 |
| C[N+]1(Cc2ccc(Cl)c(Cl)c2)CCCC1C1CCCN(Cc2ccc(Cl)c(Cl)c2)C1 (stereo not given) | > 100 | > 100 | > 100 | > 100 | > 100 | > 100 | > 100 | – | > 100 | > 100 | > 100 | > 100 | > 100 | > 100 | > 100 | > 100 |
| N#Cc1cc(-c2nc3c(F)cccc3s2)ccc1N | > 100 | 0.894 | > 100 | > 100 | 4.06 | > 100 | – | > 100 | > 100 | > 100 | > 100 | > 100 | > 100 | > 100 | > 100 | – |
| NC(=S)N/N=C1/CCCC2CCCC[C@@H]12 (stereo not given in full) | > 100 | > 100 | > 100 | > 100 | > 100 | > 100 | > 100 | > 100 | > 100 | > 100 | > 100 | > 100 | > 100 | > 100 | > 100 | > 100 |
| COC(=O)C(Cc1ccc(Oc2cc(CC(NC(=O)c3ccccc3)C(=O)OC)ccc2OC)cc1)NC(=O)c1ccccc1 (stereo not given) | 48.9 | > 86.9 | > 72.5 | 27.2 | > 100 | > 60.2 | > 100 | > 57.3 | 23.8 | 34 | 42.7 | > 100 | > 100 | > 100 | > 51.4 | > 52.4 |
| COc1ccc(NC(=O)/C(=N/NC(N)=S)C2C(=O)NC(=S)NC2=O)c(OC)c1 | > 100 | > 100 | > 100 | > 100 | > 100 | > 100 | > 100 | > 100 | > 100 | > 100 | > 100 | > 100 | > 100 | > 100 | > 100 | > 100 |
| COC(=O)[C@@H](NC(=O)N(CCC#N)CCCN(C(=O)N[C@H](Cc1ccccc1)C(=O)OC)c1ccccc1)C(C)C | > 100 | > 100 | > 100 | > 100 | > 100 | > 100 | > 100 | – | > 100 | > 100 | > 100 | > 100 | > 100 | > 100 | > 100 | > 100 |
| O=[N+]([O-])c1cc2c(c([N+](=O)[O-])c1)NCc1ccccc1O2 | > 100 | > 100 | > 100 | > 100 | > 100 | > 100 | > 100 | > 100 | > 100 | > 100 | > 100 | > 100 | > 100 | > 100 | > 100 | > 100 |
| COc1ccc(N2C(=O)C(C)SC2c2cc3cc(Br)ccc3nc2Cl)cc1 (stereo not given) | > 100 | 98.5 | > 100 | 78.6 | > 100 | 55.7 | > 100 | 74.7 | > 100 | > 100 | > 100 | > 100 | > 100 | 85.8 | > 100 | > 100 |
| COc1ccc2c(c1)-c1[nH]c3ccc(OC)cc3c1CC2 | 28.1 | 20.8 | 29.4 | 17.6 | 89.7 | 33.7 | 31.4 | – | 32.4 | 30.2 | 28.6 | 24.8 | 19 | 24.8 | 36.6 | 32.4 |
| Cc1cc2nc(N3C(=O)/C(=C/c4ccccc4S)N=C3c3ccccc3)sc2cc1C | > 100 | > 100 | > 100 | – | > 100 | > 100 | > 100 | 82 | > 100 | 39.1 | > 100 | > 100 | > 100 | 92.3 | > 100 | > 100 |
| CC(NC(=O)C(Cc1ccc(OCC[N+](C)(C)C)cc1)NC(=O)OC(C)(C)C)C(=O)NC(Cc1ccccc1)C(=O)NCC(N)=O (stereo not given) (Boc-Y(Ethyl(2-NMe3+))AFG-NH2; configuration not given here) | 25.7 | – | > 100 | > 100 | > 100 | 25.5 | 48.8 | > 100 | > 100 | > 100 | 71.7 | > 100 | > 100 | > 100 | > 100 | > 100 |
| O=C(c1ccccc1)N1OCCC1Nc1ccc(Br)cc1 (stereo not given) | > 10 | > 10 | > 10 | > 10 | > 10 | > 10 | > 10 | > 10 | > 10 | > 10 | – | > 10 | – | > 10 | > 10 | > 10 |
| CC1=C(C(=O)N(C(C)C)C(C)C)CC(C(=O)N(C(C)C)C(C)C)=C(C)N1 | > 100 | > 100 | > 100 | > 100 | > 100 | > 100 | > 100 | > 100 | > 100 | > 100 | > 100 | > 100 | > 100 | > 100 | > 100 | – |
| COc1ccc(OC2OC(COC(c3ccccc3)(c3ccc(OC)cc3)c3ccc(OC)cc3)C(O)C(O)C2O)cc1 (stereo not given) | 11 | 17.3 | – | 11.7 | 14.7 | 17 | 16.4 | 7.59 | 20.1 | 17.2 | 14.1 | 46.4 | 14.7 | 29.2 | 21.4 | 10.1 |
| C#C[C@]1(O)CC[C@H]2[C@@H]3CCC4=C/C(=N/NC(=O)c5cccc6cc7ccccc7nc56)CC[C@@H]4[C@H]3CC[C@@]21CC | > 100 | – | > 100 | – | > 100 | > 100 | > 100 | > 100 | > 100 | > 100 | > 100 | > 100 | > 100 | > 100 | 66.2 | > 100 |
| COC(=O)C1(C(=O)OC)Cc2ccc(C)cc2C2=C1C(=O)c1ccccc1C2=O | 48.9 | 29.4 | 23.7 | 32 | 35.7 | 61.8 | – | > 100 | 31.2 | 32 | 35.8 | 30.1 | 59.6 | 80.1 | 29.9 | 32.5 |
| COc1cccc(N2C(=O)/C(=C\c3ccccc3)SC2c2cc(OC)c(OC)c(OC)c2)c1 (stereo not given) | > 100 | > 100 | > 100 | > 100 | > 100 | – | > 100 | > 100 | > 100 | 40.5 | > 100 | > 100 | > 100 | > 100 | 94.3 | > 100 |
| S=C1CSc2c(ccc3ccccc23)N1 | > 100 | > 100 | > 100 | > 100 | > 100 | – | – | > 100 | > 100 | > 100 | > 100 | > 100 | > 100 | > 100 | > 100 | > 100 |
| Oc1cc(-c2ccc(Cl)cc2)cn2c1nc1ccccc12 | > 100 | > 100 | > 100 | > 100 | > 100 | > 100 | – | > 100 | > 100 | > 100 | > 100 | > 100 | > 100 | > 100 | > 100 | > 100 |
| COC(=O)c1c2c(cc3c1CC1(Cc4ccc(C(C)=O)cc4C1)C3)CCC2 (stereo not given) | > 100 | > 100 | > 100 | > 100 | > 100 | > 100 | – | > 100 | > 100 | 28.5 | > 100 | > 100 | > 100 | > 100 | > 100 | > 100 |
| O=C(Nc1ccccc1)n1[nH]c(=O)n(-c2ccccc2)c1=O | > 100 | – | > 100 | > 100 | > 100 | > 100 | > 100 | > 100 | > 100 | > 100 | > 100 | > 100 | > 100 | > 100 | > 100 | > 100 |
| O=c1n(-c2ccccc2)c(=O)n2n1C1Cc3ccccc3C12 (stereo not given) | > 100 | > 100 | – | – | > 100 | > 100 | – | > 100 | > 100 | > 100 | > 100 | > 100 | > 100 | > 100 | > 100 | > 100 |
| Cc1ccc(N(C(=O)Nc2ccc(F)c(Cl)c2)C2=NCC(C)S2)cc1 (stereo not given) | > 100 | > 100 | > 100 | – | 32.6 | > 100 | – | 73.2 | > 100 | > 100 | – | > 100 | > 100 | 73.2 | > 100 | > 100 |
| CN1CCCOC(c2ccc([N+](=O)[O-])cc2)O1 (stereo not given) | > 100 | > 100 | > 100 | > 100 | > 100 | > 100 | > 100 | – | > 100 | > 100 | > 100 | > 100 | > 100 | > 100 | > 100 | > 100 |
